Reference: patent publication US12465580B2, “Substituted fatty acids for treating non-alcoholic steatohepatitis” (BASF AS, priority 2015, dated 2025)

Key:
[1] = tested on: APOE*3Leiden.CETP double transgenic mice; assay: Hepatic fibrosis (collagen content) in diet induced NAFLD/NASH mouse model; type: in vivo; settings: for Fibrosis, Hydroxyprolin/Prolin, Mean ± SD: ApoE*3L-CETP double transgenic mice, hepatic collagen content, after 20 weeks of treatment
Method: (§1) The APOE*3Leiden.CETP double transgenic mouse is expressing a variant of the human apolipoprotein E3 (APOE3), the APOE*3Leiden, in addition to the human apolipoprotein C1 (APOC1) and CETP. […] By increasing the cholesterol content of the diet in this model, all the characteristics of human NASH develop.
(§2) Studies were performed in APOE*3Leiden.CETP mice placed on a high fat diet (24% fat w/w) with varying cholesterol content (0.25-1% cholesterol w/w). In one study (using 1% cholesterol w/w), after a 3 weeks run-in period 17 (20%) low-responder mice were removed from the study and the remaining 65 mice were sub-divided into groups of 12 mice each (+5 in the control group), matched for plasma cholesterol, triglycerides, blood glucose, body weight and age (t=0) and treatment was started. The mice received a daily gavage between 07 hr00 and 10 hr00 with either Compound N, Reference A or control (corn oil). After 4, 8, 12, 16 and 20 weeks of treatment blood samples were taken after a 5 hour fasting period (also 5 hours after compound or vehicle administration). Plasma cholesterol and triglycerides were measured. After 14 weeks of treatment 5 representative mice from the control group were sacrificed in order to assess the NASH development and to determine the termination of the study. After 20 weeks of treatment mice were sacrificed by CO2 asphyxiation, heparin heart blood was sampled and tissues were collected. Hepatic steatosis, inflammation and collagen content were analyzed.

[2] = tested on: APOE*3Leiden.CETP double transgenic mice; settings: earlier study; cited from earlier work
[3] = tested on: APOE*3Leiden.CETP double transgenic mice; assay: Fecal bile acid content in diet induced NAFLD/NASH mouse model; type: in vivo; settings: for Total bile acids (fecal), AVG ± SD: ApoE*3L-CETP double transgenic mice, feces
Method: as §1, §2
(§3) A further study was performed in APOE*3Leiden.CETP mice with a 4-week active treatment arm in mice placed on a high fat diet (24% fat and 0.25% cholesterol diet, both w/w) to collect additional metabolic data.

[4] = tested on: APOE*3Leiden.CETP double transgenic mice; assay: Hepatic cholesterol content (liver lipids) in diet induced NAFLD/NASH mouse model; type: in vivo; settings: for Effect on hepatic cholesterol ester vs control: Compound N p<0.001, Reference A p<0.05; for Liver lipids, Cholesterol ester (CE in FIG. 1), AVG ± SD / Liver lipids, Free cholesterol (FC in FIG. 1), AVG ± SD: ApoE*3L-CETP mice, high fat diet, 0.25% cholesterol w/w, daily gavage
Method: as §1, §2, §3
A mild decrease in cholesterol ester was also observed with Reference A (p<0.05). A 43% reduction in total hepatic cholesterol (statistics not performed).

[5] = tested on: APOE*3Leiden.CETP double transgenic mice; assay: Hepatic inflammation (number of foci, inflammation score) in diet induced NAFLD/NASH mouse model; type: in vivo; settings: for Inflammation Score (0-3), Mean ± SD / Inflammation, Number of foci, Mean ± SD: ApoE*3L-CETP mice, high fat/cholesterol diet, liver after 20 weeks of treatment
Method: as §1, §2

[6] = tested on: APOE*3Leiden.CETP double transgenic mice; assay: Total plasma cholesterol in diet induced NAFLD/NASH mouse model; type: in vivo
Method: as §1, §2, §3
Plasma HDL cholesterol values were adoubled (p<0.001, data not shown), underlying the fact that the reduction in plasma cholesterol was specific to the atherogenic apoB particle associated cholesterol fraction.

[7] = tested on: APOE*3Leiden.CETP double transgenic mice; assay: Hepatic steatosis (macrovesicular and microvesicular) in diet induced NAFLD/NASH mouse model; type: in vivo; settings: for Steatosis as % of the liver, Macrovesicular, Mean ± SD / Steatosis as % of the liver, Microvesicular, Mean ± SD: ApoE*3L-CETP mice, high fat/cholesterol diet, liver after 20 weeks of treatment; for Effect on macrovesicular steatosis vs control: Compound N p<0.001 vs. control
Method: as §1, §2

Structure (SMILES)	Fibrosis, Hydroxyprolin/Prolin, Mean ± SD [1]	Effect on plasma cholesterol, previously shown [2]	Total bile acids (fecal), AVG ± SD [3] [μmol/100 gr mouse/day]	Effect on hepatic cholesterol ester vs control ([4]; 0.25% cholesterol diet w/w)	Liver lipids, Cholesterol ester (CE in FIG. 1), AVG ± SD [4] [μg lipid/mg liver protein]	Liver lipids, Free cholesterol (FC in FIG. 1), AVG ± SD [4] [μg lipid/mg liver protein]	Inflammation Score (0-3), Mean ± SD [5]	Inflammation, Number of foci, Mean ± SD [5]	Steatosis as % of the liver, Macrovesicular, Mean ± SD [7] [%]	Steatosis as % of the liver, Microvesicular, Mean ± SD [7] [%]	Effect on macrovesicular steatosis vs control [7]	further results
CC/C=C\C/C=C\C/C=C\C/C=C\C/C=C\CCCCSC(CC)(CC)C(=O)O [Compound N, 2-ethyl-2-((5Z,8Z,11Z,14Z,17Z)-icosa-5,8,11,14,17-pentaenylthio)butanoic Acid]	0.027 ± 0.007	significantly decrease plasma cholesterol	3.2 ± 0.6	significant decrease	10.6 ± 2.1	9.8 ± 1.2	0.6 ± 0.8	0.6 ± 0.6	1.1 ± 1.0	57.9 ± 25.4	abolished macrovesicular steatosis	Reduction in hepatic collagen content ([1]; compared to control animals, p<0.005): 30%; Reduction in fecal bile acid excretion ([3]; vs control, p=0.006): 50%; Reduction in total hepatic cholesterol ([4]; 0.25% cholesterol diet w/w, statistics not performed): 43%; Effect on total inflammation score ([5]; vs control): significant reduction; Reduction in the number of inflammatory foci ([5]; vs control, p<0.001): approximately 85%; Reduction in total plasma cholesterol ([6]; after 4 weeks versus control, p<0.001): 52%; Plasma HDL cholesterol values ([6]; p<0.001, data not shown): doubled; Total plasma cholesterol, t = 0, AVG ± SD ([6]; t = 0 weeks (baseline, start of treatment)): 6.4 ± 1.1 mM; Total plasma cholesterol, t = 2, AVG ± SD ([6]; t = 2 weeks of treatment): 4.2 ± 0.7 mM; Total plasma cholesterol, t = 4, AVG ± SD ([6]; t = 4 weeks of treatment): 4.7 ± 1.3 mM
CC/C=C\C/C=C\C/C=C\C/C=C\C/C=C\CCCCOC(CC)C(=O)O (stereo not drawn) [Reference A, 2-((5Z,8Z,11Z,14Z,17Z)-icosa-5,8,11,14,17-pentaenyloxy)butanoic acid, reference compound]	–	significantly decrease plasma cholesterol	4.0 ± 1.2	mild decrease	17.0 ± 3.7	9.5 ± 1.3	1.9 ± 1.2	1.9 ± 1.3	21.2 ± 15.0	34.6 ± 11.8	No significant effect	Effect on fecal bile acid excretion vs control ([3]; p<0.05 vs. control): milder yet significant decrease; Effect on inflammatory foci vs control ([5]; Reference A p<0.01): milder reduction
CN(CCOc1ccc(CC2SC(=O)NC2=O)cc1)c1ccccn1 (stereo not drawn) [Rosiglitazone]	0.036 ± 0.007	–	–	–	–	–	1.7 ± 1.2	1.6 ± 1.6	14.3 ± 20.2	52.5 ± 18.4	No significant effect	–
